Paper PMC4871132 (Journal of chemical information and modeling, 2016)
Square brackets hold non-standard residues; d marks the D form. Peptide text beside a SMILES is read from it. * marks the point of attachment. ξ: configuration not given here. Cbz = O=C(OCc1ccccc1)*; ξM = CSCCC(N)C(=O)O

These molecules were tested on P. falciparum NF54 strain (PfNF54) (assay: in vitro antiplasmodial assay, parasite lactate dehydrogenase assay). Conditions: Plasmodium falciparum, NF54, read-out: PfNF54 IC50.
Assay type: cell-based
`CCN(CC)CCCC(C)Nc1ccnc2cc(Cl)ccc12` (stereo not shown) [Chloroquine] was tested, and the IC50 was 13 nM. Molecule `C[C@H]1[C@H](OC(=O)CCC(=O)O)O[C@@H]2O[C@@]3(C)CC[C@H]4[C@H](C)CC[C@@H]1[C@@]24OO3` [Artesunate] has an IC50 of 10 nM.

What follows are molecules tested on P. falciparum NF54 strain (PfNF54) (assay: in vitro antiplasmodial assay, [3H] hypoxanthine incorporation assay). Conditions: Plasmodium falciparum, NF54, read-out: PfNF54 IC50.
Assay type: cell-based
With `CCN(CC)CCCC(C)Nc1ccnc2cc(Cl)ccc12` (stereo not shown) [Chloroquine] the IC50 was 12 nM. For `C[C@H]1[C@H](OC(=O)CCC(=O)O)O[C@@H]2O[C@@]3(C)CC[C@H]4[C@H](C)CC[C@@H]1[C@@]24OO3` [Artesunate], the IC50 was 9 nM.

These molecules were tested against PfDHODH (Plasmodium falciparum, UniProt Q08210) (assay: colorimetric DCIP PfDHODH enzyme inhibition assay). Conditions: not given.
Chain of PfDHODH (Q08210 24-569): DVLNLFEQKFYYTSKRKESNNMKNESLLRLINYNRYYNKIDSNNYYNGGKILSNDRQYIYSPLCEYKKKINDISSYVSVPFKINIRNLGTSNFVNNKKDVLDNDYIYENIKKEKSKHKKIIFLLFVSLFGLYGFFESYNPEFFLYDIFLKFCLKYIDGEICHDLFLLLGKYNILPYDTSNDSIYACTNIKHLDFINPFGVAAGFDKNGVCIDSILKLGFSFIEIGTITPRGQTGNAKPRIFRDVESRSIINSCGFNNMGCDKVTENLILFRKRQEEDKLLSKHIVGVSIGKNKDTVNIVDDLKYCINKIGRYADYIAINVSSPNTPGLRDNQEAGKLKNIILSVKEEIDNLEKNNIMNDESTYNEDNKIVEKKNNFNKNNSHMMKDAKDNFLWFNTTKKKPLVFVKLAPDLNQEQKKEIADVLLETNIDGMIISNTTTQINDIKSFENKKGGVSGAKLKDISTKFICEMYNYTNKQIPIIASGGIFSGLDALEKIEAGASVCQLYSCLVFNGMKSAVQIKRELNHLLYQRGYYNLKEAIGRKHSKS
Assay type: biochemical
For `CCOC(=O)CSC(=S)Nc1ccc(Cl)cc1` [NSC85749], the “PfDHODH inhibition, result in words” value was “moderately active at concentrations above 30 μM”.

Same assay, conditions: 10 μM compound
With `CSCCC(NC(=O)OCc1ccccc1)C(=O)NCC(=O)O` (stereo not shown) [NSC89636] (Cbz-[ξM]-Gly-OH) the “% PfDHODH Inhibition at 10 μM” value was 26%. With `O=NN(CCCl)C(=O)Nc1ccc2[nH]c3ccccc3c2c1` [NSC 116824] the “% PfDHODH Inhibition at 10 μM” value was 3%. With `CSCCC(NC(=O)COc1ccc(Cl)cc1Cl)C(=O)O` (stereo not shown) [NSC87887] the “% PfDHODH Inhibition at 10 μM” value was 28%. `CCOC(=O)CSC(=S)Nc1ccc(Cl)cc1` [NSC85749] was tested, and the “% PfDHODH Inhibition at 10 μM” value was 46%. `CCOC(=O)C(=CNc1cccc2c(O)cccc12)C(=O)OCC` [NSC340225] was tested, and the “% PfDHODH Inhibition at 10 μM” value was 3%. In the case of `CCOC(=O)c1cnc(SC)nc1Nc1ccc(Cl)cc1` [NSC165287], the “% PfDHODH Inhibition at 10 μM” value is reported as 11%. With `C=CCN(CC(O)CO)c1ccccc1` (stereo not shown) [NSC58504] the “% PfDHODH Inhibition at 10 μM” value was 26%. With `COC(=O)C(CC(=O)c1ccc2ccccc2c1)OC` (stereo not shown) [NSC72405] the “% PfDHODH Inhibition at 10 μM” value was 30%. With `CCOC(=O)C(Cc1c[nH]c2ccc([N+](=O)[O-])cc12)C(=O)OCC` [NSC85231] the “% PfDHODH Inhibition at 10 μM” value was 28%. For `CCOC(=O)C(=CNc1cc(Cl)ccc1Cl)C(=O)OCC` [NSC137121], the “% PfDHODH Inhibition at 10 μM” value was 0%. `CCOC(=O)C(=CNc1cccc(N(C)C)c1)C(=O)OCC` [NSC336047] was tested, and the “% PfDHODH Inhibition at 10 μM” value was 93%. `CCOC(=O)/C(C#N)=C/NCCc1c[nH]c2ccccc12` [NSC343533] was tested, and the “% PfDHODH Inhibition at 10 μM” value was 50%.

Same assay, conditions: 10 μM compound; 10 µM
With `CCOC(=O)C(=CNc1ccc2c(c1)OCO2)C(=O)OCC` [NSC332161] the “% PfDHODH Inhibition at 10 μM” value was 63%.

Same assay, conditions: read-out: PfDHODH IC50
Molecule `CCOC(=O)CSC(=S)Nc1ccc(Cl)cc1` [NSC85749] has an IC50 of over 100000 nM. `COC(=O)C(CC(=O)c1ccc2ccccc2c1)OC` (stereo not shown) [NSC72405] was tested, and the IC50 was over 100000 nM. `CCOC(=O)C(=CNc1ccc2c(c1)OCO2)C(=O)OCC` [NSC332161] was tested, and the IC50 was 5100 nM. With `CCOC(=O)C(=CNc1cccc(N(C)C)c1)C(=O)OCC` [NSC336047] the IC50 was 380 nM. `CCOC(=O)/C(C#N)=C/NCCc1c[nH]c2ccccc12` [NSC343533] showed an IC50 of 20000 nM.

What follows are molecules tested against hDHODH (Homo sapiens, UniProt Q02127) (assay: colorimetric DCIP human DHODH enzyme inhibition assay). Conditions: from PfDHODH and hDHODH IC50.
Chain of hDHODH (Q02127 whole entry): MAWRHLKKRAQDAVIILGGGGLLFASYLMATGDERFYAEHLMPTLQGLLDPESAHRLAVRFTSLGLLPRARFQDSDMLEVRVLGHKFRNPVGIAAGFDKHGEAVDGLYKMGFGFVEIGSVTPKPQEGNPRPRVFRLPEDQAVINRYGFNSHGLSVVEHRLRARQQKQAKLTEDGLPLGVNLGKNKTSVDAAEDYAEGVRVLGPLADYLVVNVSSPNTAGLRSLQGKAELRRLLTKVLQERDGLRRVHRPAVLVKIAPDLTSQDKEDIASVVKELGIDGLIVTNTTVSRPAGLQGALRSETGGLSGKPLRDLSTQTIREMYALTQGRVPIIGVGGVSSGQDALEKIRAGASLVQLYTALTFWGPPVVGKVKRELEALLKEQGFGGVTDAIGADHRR
Assay type: biochemical
`CCOC(=O)C(=CNc1cccc(N(C)C)c1)C(=O)OCC` [NSC336047] was tested, and the “species-selectivity for PfDHODH over hDHODH” value was “highly species selective”.

Same assay, conditions: read-out: hDHODH IC50
In the case of `CCOC(=O)C(=CNc1cccc(N(C)C)c1)C(=O)OCC` [NSC336047], the IC50 is reported as over 100000 nM.
